The record followed here is ChEMBL document CHEMBL5727953, “Sulfonylcycloalkyl carboxamide compounds” (2020).

In this assay the target is Transient receptor potential cation channel subfamily A member 1 (Homo sapiens, UniProt O75762). In words: Inhibition Assay: IC50 values (effective concentration) of compounds on the human and rat TRPA1 channels were determined using a FLIPR Tetra instrument. CHO cells expressing TRPA1 were plated into 384-well plates, incubated overnight at 37 C, and loaded with BD calcium indicator dye for 1 hr at 37° C. followed by 15 minutes. at room temperature. The assay buffer was Hank's Balanced Salt Solution (HBSS) containing 20 mM HEPES (pH readjusted to 7.4) along with 0.02% BSA.Following dye load and plate cool down, compounds were added to the cells using FLIPR Tetra. Plates were then incubated with compounds for 20 minutes at room temperature prior to adding agonist. Following this incubation, ˜EC80 concentration of cinnamaldehyde (75 uM for human TRPA1 and 45 uM for rat TRPA1) was added to active the channels and block of cinnamaldehyde induced calcium influx was measured.
Chain of Transient receptor potential cation channel subfamily A member 1 (O75762 whole entry): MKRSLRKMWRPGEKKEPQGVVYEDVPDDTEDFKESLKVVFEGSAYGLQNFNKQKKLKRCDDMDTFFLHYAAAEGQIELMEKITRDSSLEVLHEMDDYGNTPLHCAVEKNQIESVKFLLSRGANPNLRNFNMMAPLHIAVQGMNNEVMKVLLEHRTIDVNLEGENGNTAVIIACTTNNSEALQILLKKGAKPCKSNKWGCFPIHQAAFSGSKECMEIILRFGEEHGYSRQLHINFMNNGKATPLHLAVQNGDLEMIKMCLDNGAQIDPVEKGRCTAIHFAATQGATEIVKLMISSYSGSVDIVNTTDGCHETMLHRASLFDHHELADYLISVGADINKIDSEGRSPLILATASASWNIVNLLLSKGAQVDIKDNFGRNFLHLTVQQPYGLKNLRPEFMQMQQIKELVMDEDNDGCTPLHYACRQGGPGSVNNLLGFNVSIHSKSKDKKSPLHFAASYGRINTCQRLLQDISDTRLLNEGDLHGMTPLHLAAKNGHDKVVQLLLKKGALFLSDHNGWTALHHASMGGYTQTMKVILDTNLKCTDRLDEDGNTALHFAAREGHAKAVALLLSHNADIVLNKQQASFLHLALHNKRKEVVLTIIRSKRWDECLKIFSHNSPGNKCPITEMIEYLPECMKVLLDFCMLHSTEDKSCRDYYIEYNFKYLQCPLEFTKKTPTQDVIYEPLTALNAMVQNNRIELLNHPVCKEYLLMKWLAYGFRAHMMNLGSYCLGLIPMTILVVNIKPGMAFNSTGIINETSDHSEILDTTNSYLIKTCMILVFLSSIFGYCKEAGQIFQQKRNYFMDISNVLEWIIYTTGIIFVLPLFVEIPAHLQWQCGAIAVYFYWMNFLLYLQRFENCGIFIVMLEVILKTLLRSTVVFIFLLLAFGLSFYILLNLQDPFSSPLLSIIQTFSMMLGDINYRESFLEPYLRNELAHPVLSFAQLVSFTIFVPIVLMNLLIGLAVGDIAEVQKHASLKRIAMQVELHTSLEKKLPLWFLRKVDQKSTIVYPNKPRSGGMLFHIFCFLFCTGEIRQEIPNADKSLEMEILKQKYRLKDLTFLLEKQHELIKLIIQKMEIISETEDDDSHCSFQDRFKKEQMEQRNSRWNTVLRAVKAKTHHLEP

Usually IC50 stands for the point on the concentration scale where inhibition reaches its midpoint. In the case of `COc1nn(-c2cnc(C(F)(F)F)nc2)cc1CC(=O)N[C@@H]1CC[C@@H]1S(=O)(=O)c1ccc(F)cc1`, the IC50 was determined as 0.246 µM.
On to `O=C(Cn1cc(-c2ccc(C(F)(F)F)cc2)cn1)N[C@@H]1CC[C@@H]1S(=O)(=O)c1ccc(F)cc1`, for which the IC50 came to 0.2 µM.
